Laboratory results reported in publication PMC12476087, “Loading of Dicarboxylatoplatinum(II)‐NHC Complexes in Bacterial Ghosts as an Advanced Development in Cancer Therapy” (Archiv Der Pharmazie, 2025).

How the values were obtained:
[1] = Stability in D2O (1H NMR); assay type: physicochemical; conditions: for behaviour in D2O (aquation): rt, up to 24 h
Method: Stability of the complexes 1–4 in CDCl3, CD3OD, CD3CN, DMF‐d7, and D2O was monitored by ^1H NMR spectroscopy at ambient temperature. Solutions of the complexes (approximately 3 mg/mL) were prepared in each solvent, and ¹H NMR spectra were recorded periodically over 24 h.

[2] = Stability in aqueous solution (RP‐HPLC‐MS); assay type: physicochemical; conditions: 0.5 mM in water, rt; m/z 446.1 (1, 20 h), m/z 602.2 (2)
Method: Samples were analyzed by HPLC‐MS immediately after preparation and at selected time points during 24 h of incubation at rt. […] As stationary phase, a Gemini C18 110 Å; 150 × 4.6 mm; 3.0 µm particles (Phenomenex Ltd.; Aschaffenburg, Germany) column was employed and equipped with a 4 × 3 mm guard column of the identical material. […] The oven temperature was maintained at 30°C and the MS analysis was performed with split flow 1:5 of the eluate in positive ionization mode (capillary voltage 4.5 kV; source temperature 320°C; dry gas 10 L/min; nebulizer gas pressure 30 psi, scan range m/z 50–1500). The injection volume of the sample solution (V sample) was set to 10 µL. Sample degradation was evaluated by integration of the extracted ion chromatograms at the indicated m/z ± 0.5 (based on the monoisotopic peaks).

A2780wt cells = assay: MTT assay, A2780wt cells; assay type: cell-based; conditions: for IC50: MTT assay, 72 h exposure
Method: (§1) Carboplatin, a second‐generation platinum drug commonly used as part of standard first‐line chemotherapy for ovarian carcinoma, was examined as a reference compound due to its clinical relevance. Additionally, the nonmalignant bone marrow stromal cell line HS‐5 was included as a control to assess specificity of the complexes toward cancer cells.
Unloaded BGs (4 × 10^8 EcN or 2 × 10^8 Ec NM522, which is equivalent to the highest tested BG concentration) were tested as controls.
The exponentially growing cells were seeded at a density of 8 × 10^3 cells/well (A2780wt/cis) or 1 × 10^4 cells/well (HS‐5), respectively, into clear flat‐bottom 96‐well plates in triplicates. […] After another 72 h of incubation, the cellular metabolic activity was measured as an indicator of cell viability employing an MTT assay. Hereby, 20 µL of a 5 mg/mL MTT solution was added to each well, respectively. After 3 h of incubation, the medium was discarded, and the formazan crystals formed were dissolved in DMSO for 15 min with gentle shaking. […] The OD at 620 nm was subtracted from the OD at 595 nm. The OD of the medium was subtracted to exclude the unspecific staining caused by FCS‐containing medium. Cells treated with vehicle control (0.1% DMF) only were set at 100% metabolic activity. The IC50 values were calculated with Prism 8.0 (GraphPad Software Inc., Boston, MA, USA) using nonlinear regression. Significance was evaluated via a one sample t‐test performed with Prism 8.0.

[3] = tested on: surface calreticulin on A2780wt cells; assay: Immunofluorescent surface calreticulin staining, A2780wt; assay type: cell-based; conditions: w/o BGs, 25 µM, 24 h
Method: (§2) Oxaliplatin, a known metal‐based ICD inducer, was included for comparison.
(§3) A2780wt or A2780cis cells were seeded at a density of 1.2 × 10^5 on cover slips and allowed to adhere for 24 h. […] Subsequently, the cells were washed again three times with PBS and they were incubated after adding the secondary antibody (Alexa‐Fluor‐conjugated anti‐rabbit, 1:200), for 45 min at rt. Subsequently, the cells were washed again three times with PBS and they were mounted on slides with mounting medium. After letting them dry overnight, visualization was performed by spinning disk confocal microscopy. […] Acquired images were background subtracted, individual cells were manually segmented, and fluorescence intensity for the calreticulin staining was quantified with a FIJI software. Two repetitions of the experiment were performed, where at least 20 cells per condition were analyzed and the mean intensity of each sample was calculated, respectively.

A2780cis cells = assay: ATP luminescence assay, A2780cis; assay type: cell-based; conditions: w/o BGs, 25 µM, 24 h
Text: As a second potential mode of cell death, ICD has been investigated. Thus, two hallmarks of ICD, namely release of adenosine triphosphate (ATP) and calreticulin translocation to the plasma membrane have been analyzed in detail. Given that some platinum complexes, including the clinically used drug oxaliplatin [27], as well as BGs, are known inducers of ICD, we investigated the potential of BGs loaded with platinum(II)‐NHC complexes to trigger this process. […] Untreated cells (without compound and without BGs) were tested as negative controls.
The ATP assay was performed by employing the commercially available ATPlite Luminescence Assay System 96‐well (revvity, Massachusetts, USA). In brief, A2780wt and A2780cis cells, respectively, were seeded at a density of 8 × 10^3 cells per well into an opaque‐walled 96‐well plate with solid bottoms. […] After incubation, 50 µL of the provided mammalian cell lysis solution was added and incubated for further 5 min on an orbital shaker at 700 rpm. Then, 50 µL of a provided substrate solution was added and again incubated for 5 min on an orbital shaker at 700 rpm. The plate was allowed to dark adapt for 10 min and then the luminescence was measured. Analysis was performed on the BioTek Synergy H1.

[4] = tested on: surface calreticulin on A2780cis cells; assay: Immunofluorescent surface calreticulin staining, A2780cis; assay type: cell-based; conditions: w/o BGs, 25 µM, 24 h
Method: as §2, §3

HS‐5 cells = assay: MTT assay, HS‐5 cells; assay type: cell-based; conditions: 72 h exposure, nonmalignant bone marrow stromal cells
Method: as §1
The exponentially growing cells were seeded at a density of 8 × 10^3 cells/well (A2780wt/cis) or 1 × 10^4 cells/well (HS‐5), respectively, into clear flat‐bottom 96‐well plates in triplicates. Following 24 h of incubation for the adherence of the cells at 37°C in a humidified atmosphere (5% CO2/95% air), the test compounds were added. […] For the evaluation of the cell growth inhibition by the compounds loaded in BGs, the BG suspensions were directly diluted in RPMI 1640 to the desired testing concentration (25 µM). After another 72 h of incubation, the cellular metabolic activity was measured as an indicator of cell viability employing an MTT assay. Hereby, 20 µL of a 5 mg/mL MTT solution was added to each well, respectively. After 3 h of incubation, the medium was discarded, and the formazan crystals formed were dissolved in DMSO for 15 min with gentle shaking. Afterward, the optical density (OD) was measured at 595 and 620 nm, respectively on an EnSpire Multimode Plate Reader (revvity, Waltham, MA, USA). The OD at 620 nm was subtracted from the OD at 595 nm. The OD of the medium was subtracted to exclude the unspecific staining caused by FCS‐containing medium. Cells treated with vehicle control (0.1% DMF) only were set at 100% metabolic activity. The IC50 values were calculated with Prism 8.0 (GraphPad Software Inc., Boston, MA, USA) using nonlinear regression. Significance was evaluated via a one sample t‐test performed with Prism 8.0.

Row | Compound | behaviour in D2O (aquation) [1] | complex that had released its acetates ([1]; within 5 min of dissolution) | change of HPLC‐MS signal intensity in aqueous solution [2] | IC50 (A2780wt cells) [µM] | metabolic activity of A2780wt cells (A2780wt cells; free (non‐loaded) compound, 25 µM, 72 h) [%] | x‐fold intensity of surface calreticulin compared to untreated cells [3] [x‐fold] | ATP concentration (A2780cis cells) [µM] | x‐fold intensity of surface calreticulin compared to untreated cells [4] [x‐fold] | IC50 (HS‐5 cells) [µM]
1 | CCN1[C]([Pt]([O]C(C)=O)([O]C(C)=O)[SH](C)(C)=O)N(CC)c2ccccc21 [Compound 1, (SP‐4‐2)‐Diacetato(1,3‐diethylbenzimidazol‐2‐ylidene)(dimethylsulfoxide)platinum(II)] | No significant spectral changes were observed during incubation for 24 h at rt | over 70% | No significant decrease in the intensity of this signal | 31.1 ± 2.39 | 85 | 1.09 ± 0.00 | 0.23 ± 0.05 | 1.18 ± 0.37 | 64.3 ± 8.2
2 | CCN1[C]([Pt]([O]C(=O)C(Cl)Cl)([O]C(=O)C(Cl)Cl)[SH](C)(C)=O)N(CC)c2ccccc21 [Compound 3, (SP‐4‐2)‐Bis(dichloroacetato)(1,3‐diethylbenzimidazol‐2‐ylidene)(dimethylsulfoxide)platinum(II)] |  |  |  | 58.9 ± 2.05 |  | 1.50 ± 0.17 | 0.28 ± 0.04 | 0.75 ± 0.28 | > 100
3 | (SP‐4‐2)‐Bis(dichloroacetato)bis(1,3‐diethylbenzimidazol‐2‐ylidene)platinum(II) [Compound 4] |  |  |  | 37.9 ± 1.58 |  | 1.37 ± 0.24 | 0.10 ± 0.03 | 1.13 ± 0.36 | 37 ± 1.36
4 | (SP‐4‐2)‐Diacetatobis(1,3‐diethylbenzimidazol‐2‐ylidene)platinum(II) [Compound 2] | fast initial aquation |  | progressively decreased over time | 40.8 ± 2.34 |  | 1.07 ± 0.12 | 0.31 ± 0.04 | 1.02 ± 0.05 | > 50
